Reference: BigSolDB 2.1

CC(=O)c1c(C)c([N+](=O)[O-])c(C(C)(C)C)c([N+](=O)[O-])c1C
solubility (mole fraction)
Settings	278.15 K	283.15 K	288.15 K	293.15 K	298.15 K	303.15 K	308.15 K	313.15 K	318.15 K
in DMF	0.0747	0.0867	0.0998	0.113	0.128	0.147	0.167	0.187	0.211
in ethanol	0.00197	0.00243	0.003	0.00367	0.00444	0.00531	0.00633	0.00753	0.00892
in isopropanol	0.00161	0.00204	0.00258	0.00323	0.00408	0.00506	0.0063	0.00771	0.00933
in methanol	0.0013	0.00156	0.00187	0.00224	0.00267	0.00318	0.00375	0.00442	0.00515
